Primed or numbered codes have the meaning given here. [ ]: non-standard residue; d: D form. FAM = 5(6)-carboxyfluorescein; FAM″ = C-terminal FAM
test system: HeLa cells; assay: Evaluation of cell membrane permeability by flow cytometry; assay type: cell-based, human; conditions: 10 μM, 20 hours, compared with Example 15
Procedure: As the eukaryotic cells, HeLa cells (established cell strain derived from a human cervical cancer cell) were used and the cell membrane permeability of the samples 1 to 15 was analyzed. In Examples 1 to 15, the prepared sample solutions 1 to 15 were used, respectively, and in Example 16, the FAM solution was used.
The HeLa cell was cultured in 10% fetal bovine serum (FBS)-containing Dulbecco's modified Eagle's medium (DMEM (Cat No. 044-29765, manufactured by FUJIFILM Wako Pure Chemical Corporation)), which is a culture medium.
The HeLa cell that adhered to a culture plate was cleaned with PBS and then, a 0.25%-trypsin/EDTA solution was added thereto, and incubation was performed for three minutes at 37° C. After the incubation, the aforementioned 10% FBS-containing DMEM was added to deactivate trypsin and then, five-minute centrifugal separation was performed at 150×g to precipitate the cells. After the supernatant generated by the centrifugal separation was removed, the 10% FBS-containing DMEM was added to the precipitate (cell pellet) to prepare a cell suspension of about 2×10^5 cells/mL. The cell suspension was added by 1 mL to a well of a commercially available six-hole (well) plate (manufactured by AGC TECHNO GLASS Co., Ltd.) so as to seed the cell (about 2×10^5 cells/well). In addition, the 2 mM sample solution 1 was diluted with the 10% FBS-containing DMEM to prepare the sample solution 1 in which the concentration of the sample 1 was 20 μM. Then, 1 mL of the 20 μM sample solution 1 was added to the well (that is, so that the concentration of the sample 1 became 10 μM and the DMSO concentration became 0.5% in the culture solution in the well). After that, the cell was incubated for 20 hours at 37° C. under a 5% CO2 condition.
After the 20-hour incubation, the culture supernatant was removed from the well and the cells in the well were cleaned twice with 1 mL of PBS. Next, 200 μL of the 0.25% trypsin/EDTA solution was added to the well and the incubation was performed for three minutes at 37° C. After the incubation, 400 μL of the 10% FBS-containing DMEM was added to the well to deactivate the trypsin. Subsequently, the cell suspension in the well was transferred to a tube and the cells were collected. After that, 600 μL of PBS was added further to the well to clean the well. Then, PBS in the well was transferred to the tube, so that the cells remaining in the well were collected in the tube. This tube was subjected to five-minute centrifugal separation at 4° C. under a condition of 210×g. After the centrifugal separation, the supernatant was removed and the precipitate (cell pellet) was suspended (cleaned) with 1 mL of PBS, which was followed by the centrifugal separation under the same condition as that described above. After this operation was repeated twice, the supernatant was removed and thus, the cells (cell pellet) cultured in a culture medium containing the sample 1 were obtained.
Regarding the obtained cells (cell pellet), the cell membrane permeability of the sample 1 was analyzed using a flow cytometer. As the flow cytometer, On-Chip Flowcytometer (manufactured by On-Chip Biotechnologies Co., LTD.) was used.
For such an analysis, the obtained cell pellet was suspended with 100 μL of on-chip T buffer to prepare a cell suspension for analysis.
Using the aforementioned flow cytometer, gating based on forward scatter (FSC) and side scatter (SSC) was performed to set a gate about a cell group to be analyzed, and the fluorescence intensity was measured about the cell group in this gate. Note that the analysis was performed so that the cell group contained at least 10000 cells. The fluorescence intensity was measured using a fluorescence detector FL2 of the flow cytometer (optimum detection wavelength around 543 nm) capable of detecting the fluorescence wavelength of FAM. […]

Q: How did the “value of MFI, comparison in words” value turn out when Ac-KKRTLRKSNRKkR-FAM [Example 12] was run?
A: high in particular

same assay, conditions: construct (additive) 10 μM, 0.5% DMSO in culture solution, 20 hours incubation at 37° C., FAM fluorescence, detector FL2

Q: Which “MFI (median fluorescence intensity)” value does the source give for “5(6)-carboxyfluorescein [Example 16, reference compound]” here?
A: 10.6

Q: With “Ac-KKRTLRKSNRKKR-FAM [Example 7] (Ac-KKRTLR[dK]SNRKKR-{FAM})” as the substance, how does the “MFI (median fluorescence intensity)” value read?
A: 16.9

Q: For “Ac-KKRTLRKSNRKKR-FAM [Example 15] (Ac-KKRTLRKSNRKKR-{FAM″}) [reference compound]”, which “MFI (median fluorescence intensity)” value is on record?
A: 13.0

Q: For “Ac-KKRTLRKSNRKKr-FAM (Ac-KKRTLRKSNRKK[dR]-{FAM″}) [Example 13]”, which “MFI (median fluorescence intensity)” value is on record?
A: 15.2

Q: For Ac-KKRTLRKSNRKkR-FAM [Example 12], which “MFI (median fluorescence intensity)” value is on record?
A: 33.8

Q: With “Ac-KKRTLRKSNRkKR-FAM (Ac-KKRTLRKSNR[dK]KR-{FAM″}) [Example 11]” as the substance, how does the “MFI (median fluorescence intensity)” value read?
A: 17.4

Q: With “Ac-KKRTLRKSNrKKR-FAM (Ac-KKRTLRKSN[dR]KKR-{FAM″}) [Example 10]” as the substance, how does the “MFI (median fluorescence intensity)” value read?
A: 15.5

Q: “Ac-KKRTLRKSnRKKR-FAM (Ac-KKRTLRKS[dN]RKKR-{FAM″}) [Example 9]” was tested. Which “MFI (median fluorescence intensity)” value did it give?
A: 15.6

Q: Which “MFI (median fluorescence intensity)” value does the source give for “Ac-KKRTLRKsNRKKR-FAM (Ac-KKRTLRK[dS]NRKKR-{FAM″}) [Example 8]” here?
A: 14.3

Q: With Ac-KKRTLrKSNRKKR-FAM [Example 6] as the substance, how does the “MFI (median fluorescence intensity)” value read?
A: 17.5

Q: With “Ac-KKRTlRKSNRKKR-FAM (Ac-KKRT[dL]RKSNRKKR-{FAM″}) [Example 5]” as the substance, how does the “MFI (median fluorescence intensity)” value read?
A: 16.5

Q: With “Ac-KKRtLRKSNRKKR-FAM (Ac-KKR[dT]LRKSNRKKR-{FAM″}) [Example 4]” as the substance, how does the “MFI (median fluorescence intensity)” value read?
A: 15.9

Q: With “Ac-KKrTLRKSNRKKR-FAM (Ac-KK[dR]TLRKSNRKKR-{FAM″}) [Example 3]” as the substance, how does the “MFI (median fluorescence intensity)” value read?
A: 13.9

Q: “Ac-KkRTLRKSNRKKR-FAM (Ac-K[dK]RTLRKSNRKKR-{FAM″}) [Example 2]” was tested. Which “MFI (median fluorescence intensity)” value did it give?
A: 14.1

Q: With “Ac-kKRTLRKSNRKKR-FAM (Ac-[dK]KRTLRKSNRKKR-{FAM″}) [Example 1]” as the substance, how does the “MFI (median fluorescence intensity)” value read?
A: 13.9

Q: How did the “MFI (median fluorescence intensity)” value turn out when “Ac-kkrtlrksnrkkr-FAM (Ac-[dK][dK][dR][dT][dL][dR][dK][dS][dN][dR][dK][dK][dR]-{FAM″}) [Example 14]” was run?
A: 16.1

From patent US20260055138A1, “CARRIER PEPTIDE FRAGMENT AND USE THEREOF” (TOAGOSEI CO., LTD., priority 2022, published 2026)
